Counter-ions that a name gives are not always drawn.
Each molecule was assayed against T1, neuronal nicotinic acetylcholine receptors (Rattus norvegicus, UniProt P09483+P12390) (assay: Binding of [3H]-cytisine to neuronal nicotinic acetylcholine receptors, crude synaptic membranes from whole rat brain). Settings: not given.
T1 construct: crude synaptic membrane preparations from whole rat brain; from tissue; host or cells: whole rat brain, crude synaptic membranes
Description: The In Vitro protocols for determination of nicotinic acetylcholine channel receptor binding potencies of ligands were determined as follows.
Washed membranes were stored at −80° C. prior to use. Frozen aliquots were slowly thawed and resuspended in 20 volumes of buffer (containing: 120 mM NaCl, 5 mM KCl, 2 mM MgCl2, 2 mM CaCl2 and 50 mM Tris-Cl, pH 7.4 @[…]). After centrifuging at 20,000×g for 15 minutes, the pellets were resuspended in 30 volumes of buffer.
The test compounds were dissolved in water to make 10 mM stock solutions. Each solution was then diluted (1:100) with buffer (as above) and further taken through seven serial log dilutions to produce test solutions from 10^−5 to 10^−11 M.
Samples were incubated for 60 minutes at 4° C., then rapidly filtered through Whatman GF/B filters presoaked in 0.5% polyethyleneimine using 3×4 mL of ice-cold buffer. The filters are counted in 4 mL of Ecolume® (ICN). Nonspecific binding was determined in the presence of 10 μM (−)-nicotine and values were expressed as a percentage of total binding. IC50 values were determined with the RS-1 (BBN) nonlinear least squares curve-fitting program and IC50 values were converted to Ki values using the Cheng and Prusoff correction (Ki=IC50/(1+[ligand]/Kd of ligand).

T1 sequence (P09483 31-630): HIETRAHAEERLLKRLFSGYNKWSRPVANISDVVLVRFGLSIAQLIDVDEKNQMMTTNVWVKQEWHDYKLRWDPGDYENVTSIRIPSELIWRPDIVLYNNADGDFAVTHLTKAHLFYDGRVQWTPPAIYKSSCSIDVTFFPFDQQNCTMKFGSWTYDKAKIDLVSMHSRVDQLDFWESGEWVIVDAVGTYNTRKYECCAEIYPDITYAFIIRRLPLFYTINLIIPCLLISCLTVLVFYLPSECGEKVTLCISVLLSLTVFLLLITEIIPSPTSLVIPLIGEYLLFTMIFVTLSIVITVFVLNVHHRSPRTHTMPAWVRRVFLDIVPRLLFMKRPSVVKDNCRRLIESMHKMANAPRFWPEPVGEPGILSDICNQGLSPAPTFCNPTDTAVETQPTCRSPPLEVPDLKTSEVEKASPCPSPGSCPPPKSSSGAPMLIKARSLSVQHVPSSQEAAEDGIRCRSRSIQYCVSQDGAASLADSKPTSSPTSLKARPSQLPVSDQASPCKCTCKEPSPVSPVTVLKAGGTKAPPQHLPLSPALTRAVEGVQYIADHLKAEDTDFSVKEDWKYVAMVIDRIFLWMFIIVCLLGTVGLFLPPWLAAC
T1 sequence (P12390 25-500): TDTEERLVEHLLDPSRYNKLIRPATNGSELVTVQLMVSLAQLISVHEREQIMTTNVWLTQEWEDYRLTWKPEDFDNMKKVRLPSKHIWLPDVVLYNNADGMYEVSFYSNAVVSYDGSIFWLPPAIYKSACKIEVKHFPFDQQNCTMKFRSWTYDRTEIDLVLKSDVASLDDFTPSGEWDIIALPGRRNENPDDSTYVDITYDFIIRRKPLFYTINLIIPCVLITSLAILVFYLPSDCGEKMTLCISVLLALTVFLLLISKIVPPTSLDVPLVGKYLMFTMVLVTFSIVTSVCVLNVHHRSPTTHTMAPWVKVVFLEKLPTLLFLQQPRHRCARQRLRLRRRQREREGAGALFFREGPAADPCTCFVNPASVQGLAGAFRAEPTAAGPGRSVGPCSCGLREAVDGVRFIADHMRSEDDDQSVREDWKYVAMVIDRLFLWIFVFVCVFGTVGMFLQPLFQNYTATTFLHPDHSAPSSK

How did the Ki turn out when `Clc1ccc(N2CC[C@H]3CN[C@H]3C2)cn1` [Example 49, (1R,6S)-3-(6-chloro-3-pyridinyl)-3,8-diazabicyclo[4.2.0]octane fumarate] was run?
The Ki was 0.02 nM.

`CN1C[C@@H]2CN(c3ccc(Cl)nc3)C[C@@H]2C1` [Example 4, cis-2-(6-chloro-3-pyridinyl)-5-methyloctahydropyrrolo[3,4-c]pyrrole dihydrochloride] was tested. Which Ki did it give?
Its Ki is 36 nM.

How did the Ki turn out when `N#Cc1cncc(N2CC[C@H]3CNC[C@H]32)c1` [Example 83, 5-((3aS,6aS)-hexahydropyrrolo[3,4-b]pyrrol-1(2H)-yl)nicotinonitrile fumarate] was run?
Its Ki is 97 nM.

`Clc1ccc(N2CC[C@H]3CN[C@H]3C2)cn1` (relative stereo) [Example 42, (cis)-3-(6-chloro-3-pyridinyl)-3,8-diazabicyclo[4.2.0]octane bis(4-methylbenzenesulfonate)] was tested. Which Ki did it give?
The Ki was 0.03 nM.

`N#Cc1cncc(N2C[C@H]3CN[C@H]3C2)c1` [Example 79, 5-[(1R,5R)-3,6-diazabicyclo[3.2.0]hept-3-yl]nicotinonitrile fumarate] was tested. Which Ki did it give?
The Ki was 0.12 nM.

Which Ki does the source give for `N#Cc1cncc(N2CC[C@@H]3CNC[C@@H]32)c1` [Example 81, 5-((3aR,6aR)-hexahydropyrrolo[3,4-b]pyrrol-1(2H)-yl)nicotinonitrile] here?
The Ki was 11 nM.

`Clc1cc(N2C[C@H]3CCN[C@H]3C2)cnc1Br` [Example 59, (3aR,6aR)-5-(6-bromo-5-chloro-3-pyridinyl)octahydropyrrolo[3,4-b]pyrrole fumarate] was tested. Which Ki did it give?
The Ki was 0.35 nM.

For `c1cncc(N2CC[C@@H]3CNC[C@@H]32)c1` [Example 75, (3aR,6aR)-1-(3-pyridinyl)octahydropyrrolo[3,4-b]pyrrole fumarate], which Ki is on record?
Its Ki is 6.9 nM.

For `c1cncc(N2CC[C@@H]3CCN[C@@H]3C2)c1` (relative stereo) [Example 39, (cis)-6-(3-pyridinyl)octahydro-1H-pyrrolo[2,3-c]pyridine dihydrochloride], which Ki is on record?
Its Ki is 0.54 nM.

Which Ki does the source give for `Clc1ccc(N2C[C@H]3CN[C@H]3C2)cn1` [Example 80, (1R,5R)-3-(6-chloro-3-pyridinyl)-3,6-diazabicyclo[3.2.0]heptane fumarate] here?
The Ki was 0.17 nM.

How did the Ki turn out when `Clc1ccc(N2CC[C@H]3CNC[C@H]32)cn1` [Example 77, (3aS,6aS)-1-(6-chloro-3-pyridinyl)octahydropyrrolo[3,4-b]pyrrole fumarate] was run?
Its Ki is 19 nM.

For `Brc1cncc(N2C[C@@H]3CCN[C@@H]3C2)c1` [Example 31, (3aS,6aS)-5-(5-bromo-3-pyridinyl)octahydropyrrolo[3,4-b]pyrrole 4-methylbenzenesulfonate], which Ki is on record?
The Ki was 14 nM.

How did the Ki turn out when `c1cncc(N2CC[C@H]3CNC[C@H]32)c1` [Example 78, (3aS,6aS)-1-(3-pyridinyl)octahydropyrrolo[3,4-b]pyrrole dihydrochloride] was run?
Its Ki is 25 nM.

With `N#CCc1cc(N2C[C@H]3CCN[C@H]3C2)cnc1Br` [Example 66, [5-((3aR,6aR)-hexahydropyrrolo[3,4-b]pyrrol-5(1H)-yl)-2-bromo-3-pyridinyl]acetonitrile fumarate] as the molecule, how does the Ki read?
The Ki was 0.26 nM.

How did the Ki turn out when `Clc1ccc(N2C[C@H]3CNC[C@H]32)cn1` [Example 57, (1R,5S)-6-(6-chloro-3-pyridinyl)-3,6-diazabicyclo[3.2.0]heptane fumarate] was run?
The Ki was 1.2 nM.

For `Clc1ccc(N2CC[C@@H]3CNC[C@@H]32)cn1` (relative stereo) [Example 16, cis-1-(6-chloro-3-pyridinyl)octahydropyrrolo[3,4-b]pyrrole hydrochloride], which Ki is on record?
The Ki was 23 nM.

Which Ki does the source give for `[N-]=[N+]=Nc1cncc(N2C[C@H]3CNC[C@H]32)c1` [Example 96, (1R,5S)-6-(5-azido-3-pyridinyl)-3,6-diazabicyclo[3.2.0]heptane fumarate] here?
Its Ki is 1.9 nM.

`N#Cc1cncc(N2C[C@H]3CCNC[C@H]32)c1` [Example 61, 5-[(1S,6R)-3,8-diazabicyclo[4.2.0]oct-8-yl]nicotinonitrile fumarate] was tested. Which Ki did it give?
The Ki was 2.5 nM.

`Oc1cncc(N2C[C@H]3CNC[C@H]3C2)c1` [Example 6, cis-2-(5-hydroxy-3-pyridinyl)octahydropyrrolo[3,4-c]pyrrole dihydrochloride] was tested. Which Ki did it give?
The Ki was 0.75 nM.

For `Clc1cc(N2C[C@@H]3CCN[C@@H]3C2)cnc1Cl` [Example 25, (3aS,6aS)-5-(5,6-dichloro-3-pyridinyl)octahydropyrrolo[3,4-b]pyrrole hydrochloride], which Ki is on record?
Its Ki is 1.4 nM.

With `Cc1cc(N2C[C@@H]3CCNC[C@@H]32)cnc1Cl` [Example 90, (1R,6S)-8-(6-chloro-5-methyl-3-pyridinyl)-3,8-diazabicyclo[4.2.0]octane fumarate] as the molecule, how does the Ki read?
The Ki was 0.04 nM.

Which Ki does the source give for `Clc1ccc(N2CC[C@@H]3CNC[C@@H]32)cn1` [Example 73, (3aR,6aR)-1-(6-chloro-3-pyridinyl)octahydropyrrolo[3,4-b]pyrrole fumarate] here?
The Ki was 24 nM.

Which Ki does the source give for `COc1cc(N2C[C@H]3CNC[C@H]32)cnc1Br` [Example 95, (1R,5S)-6-(6-bromo-5-methoxy-3-pyridinyl)-3,6-diazabicyclo[3.2.0]heptane 4-methylbenzenesulfonate] here?
Its Ki is 0.12 nM.

How did the Ki turn out when `COc1cncc(N2C[C@@H]3CCN[C@@H]3C2)c1` [Example 32, (3aS,6aS)-5-(5-methoxy-3-pyridinyl)octahydropyrrolo[3,4-b]pyrrole 4-methylbenzenesulfonate] was run?
Its Ki is 5.3 nM.

Which Ki does the source give for `Clc1ccc(N2C[C@H]3NCC[C@H]32)cn1` [Example 19, (1R,5R)-6-(6-chloro-3-pyridinyl)-2,6-diazabicyclo[3.2.0]heptane bis(4-methylbenzenesulfonate)] here?
The Ki was 576 nM.

`Clc1ccc(N2C[C@H]3CNC[C@H]32)cn1` (relative stereo) [Example 46, (cis)-6-(6-chloro-3-pyridinyl)-3,6-diazabicyclo[3.2.0]heptane fumarate] was tested. Which Ki did it give?
The Ki was 0.73 nM.

Same assay, conditions: [3H]-CYT 1.25 nM, whole rat brain membranes, 60 minutes at 4° C.; IC50 converted to Ki by Cheng and Prusoff correction; read-out: Average Ki

Which Ki does the source give for `c1cncc(N2CC[C@H]3NC[C@H]32)c1` [Example 18, (1R,5R)-2-(3-pyridinyl)-2,6-diazabicyclo[3.2.0]heptane bis(4-methylbenzenesulfonate)] here?
Its Ki is 154 nM.

How did the Ki turn out when `Clc1cc(N2C[C@@H]3CCNC[C@@H]32)cnc1Cl` [Example 94, (1R,6S)-8-(5,6-dichloro-3-pyridinyl)-3,8-diazabicyclo[4.2.0]octane 4-methylbenzenesulfonate] was run?
The Ki was 0.12 nM.

For `Clc1cc(N2C[C@H]3CCNC[C@H]32)cnc1Cl` [Example 93, (1S,6R)-8-(5,6-dichloro-3-pyridinyl)-3,8-diazabicyclo[4.2.0]octane 4-methylbenzenesulfonate], which Ki is on record?
The Ki was 0.3 nM.

With `COc1cncc(N2C[C@H]3CCNC[C@H]32)c1` [Example 88, (1S,6R)-8-(5-methoxy-3-pyridinyl)-3,8-diazabicyclo[4.2.0]octane fumarate] as the molecule, how does the Ki read?
The Ki was 0.56 nM.

For `Oc1cncc(N2CC[C@H]3CNC[C@H]32)c1` [Example 82, (3aS,6aS)-1-(5-hydroxy-3-pyridinyl)octahydropyrrolo[3,4-b]pyrrole dihydrochloride], which Ki is on record?
The Ki was 363 nM.

How did the Ki turn out when `c1cncc(N2C[C@H]3NCC[C@H]32)c1` [Example 20, (1R,5R)-6-(3-pyridinyl)-2,6-diazabicyclo[3.2.0]heptane bis(4-methylbenzenesulfonate)] was run?
The Ki was 122 nM.

For `Cc1cc(N2C[C@H]3CCNC[C@H]32)cnc1Cl` [Example 89, (1S,6R)-8-(6-chloro-5-methyl-3-pyridinyl)-3,8-diazabicyclo[4.2.0]octane fumarate], which Ki is on record?
The Ki was 0.24 nM.

How did the Ki turn out when `c1cncc(N2C[C@H]3CCNC[C@H]32)c1` [Example 91, (1S,6R)-8-(3-pyridinyl)-3,8-diazabicyclo[4.2.0]octane 4-methylbenzenesulfonate] was run?
Its Ki is 1.1 nM.

Source: patent US8119635B2, “Diazabicyclic central nervous system active agents” (Abbott Laboratories, priority 2000, dated 2012)
